Data set [1] can be described thus: solubility in tetrahydrofuran. Type of data set: physicochemical. The note with it: 25° C., weight dissolved completely in 1 g tetrahydrofuran. As to the method:
Each of the Exemplified Compounds (1-1) and (1-2) was dissolved in 1 g of tetrahydrofuran at 25° C.
Experiments were conducted by using Comparative Compounds (3) to (5) in the same manner as in Example 8.

A short description of data set [2]: dissolution in binder polymer solution for film formation. Type of data set: physicochemical. As to the method:
Into 85 parts by weight of tetrahydrofuran, 15 parts by weight of “Panlite TS-2020” (manufactured by Teijin Chemicals Ltd.) and 15 parts by weight of Compound (1-1) were dissolved by mixing. The solution was applied by using a doctor blade onto a sheet in which aluminum was vapor deposited on a polyethylene […] (PET) film, followed by drying at 80° C. for 3 hours. Thus, a charge transport layer was formed (thickness: 18 μm). Further, a translucent gold electrode was vapor deposited on this charge transport layer, and the charge carrier mobility was measured. For the measurement of the carrier mobility, a nitrogen gas laser having a pulse half width of […] and a wavelength of 337 nm was used as a light source, and the time-of-flight method (Toshiaki Tanaka, Yasuhiro Yamaguchi and Masaaki Yokoyama, Denshi Shashin (Electrophotography), 29, 366 (1990)) was employed. Table 1 and FIG. 1 show the results measured at 25° C. and 25 V/μm.
Experiments were conducted by using Comparative Compounds (1) to (6) in the same manner as in Example 1. […] Note that it was impossible to measure the mobility of Comparative Compounds (3) to (5) because of their insolubility.
Into 8 parts by weight of tetrahydrofuran, 1 part by weight of a polycarbonate “Z-200” (manufactured by Mitsubishi Engineering-Plastics Corporation) and 1 part by weight of Compound (1-1) or (1-2) were dissolved by mixing. The liquid was applied onto the charge generation layer, followed by drying at 80° C. for 2 hours, to thereby form a charge transport layer (thickness: approximately 20 μm). Thus, each electrophotographic photoreceptor was prepared.
Experiments were conducted by using Comparative Compounds (2) to (6) in the same manner as in Example 4. […] Note that it was impossible to measure the electrophotographic characteristics of Comparative Compounds (3) to (5) because of their insolubility.
Into 85 parts by weight of tetrahydrofuran, 15 parts by weight of “Panlite TS-2020” and 15 parts by weight of Compound (1-1) or (1-2) were dissolved by mixing. This liquid was applied onto a PET plate by using a doctor blade, followed by drying at 80° C. for 3 hours. Thus, a thin film was prepared (thickness: approximately 20 μm).
Experiments were conducted by using Comparative Compounds (3) to (5) in the same manner as in Example 6. […] Note that it was impossible to perform measurement of Comparative Compounds (3) to (5) because of their insolubility.

Setting [3] is: 1 part polycarbonate Z-200, 1 part compound, 8 parts tetrahydrofuran.
Setting [4] is: 15 parts Panlite TS-2020, 15 parts compound, 85 parts tetrahydrofuran.

For `Cc1ccc(/C=C/c2ccc(N(c3ccc(/C=C/c4ccc(C)cc4)cc3)c3ccc(/C=C/c4ccc(C)cc4)cc3)cc2)cc1` [Comparative Compound (3)], the Solubility in data set [1] was 0.08 g/g tetrahydrofuran. In addition, the “dissolution in binder polymer solution” value in data set [2] (setting [3]) and in data set [2] (setting [4]) was “not successfully dissolved” each time.
Take `Cc1ccccc1/C=C/c1ccc(N(c2ccc(/C=C/c3ccccc3C)cc2)c2ccc(/C=C/c3ccccc3C)cc2)cc1` [Comparative Compound (4)]: in data set [1], the Solubility turned out to be 0.02 g/g tetrahydrofuran. In addition, the “dissolution in binder polymer solution” value in data set [2] (setting [3]) and in data set [2] (setting [4]) was “not successfully dissolved” in each case.
In turn, `COc1ccc(/C=C/c2ccc(N(c3ccc(/C=C/c4ccc(OC)cc4)cc3)c3ccc(/C=C/c4ccc(OC)cc4)cc3)cc2)cc1` [Comparative Compound (5)] yielded a Solubility in data set [1] of 0.10 g/g tetrahydrofuran. Moreover, the “dissolution in binder polymer solution” value in data set [2] (setting [3]) and in data set [2] (setting [4]) was “not successfully dissolved” in each case.
Turning to `Cc1cccc(C=Cc2ccc(N(c3ccc(C=Cc4cccc(C)c4)cc3)c3ccc(C=Cc4cccc(C)c4)cc3)cc2)c1` [Compound (1-1)], the melting point (commonly the temperature of the solid-liquid transition) was 98 to 99 °C. For the same compound, the Solubility in data set [1] is given as 0.40 g/g tetrahydrofuran.
`COc1cccc(C=Cc2ccc(N(c3ccc(C=Cc4cccc(OC)c4)cc3)c3ccc(C=Cc4cccc(OC)c4)cc3)cc2)c1` [Compound (1-2)] returned a melting point of 145 to 146 °C. In data set [1], the Solubility was 0.45 g/g tetrahydrofuran.

Source of the values: patent publication US8859818B2, “Electrophotographic photoreceptor” (Takasago International Corporation, priority 2010, dated 2014).
